Legend:
[1] = system: mouse embryonic fibroblasts (129 or OG2 MEFs); assay: Screen for iPSC generation from MEFs transduced with Oct4/Klf4 (OK); type: cell-based; settings: for hit in second synergist screen: OK-transduced MEFs, 1 μM BIX in medium, compound 0.5-2 μM, not followed up
Procedure: Unmodified MEFs derived from E13-14 embryos of the 129 mice were used for the initial screen. MEFs were plated on Matrigel at 3.5×10^4 cells/well of a 6-well plate and transduced with OK (retroviral vectors expressing Oct4 and Klf4) alone. Within 14-21 days, treated cells were assessed for the appearance of colonies that had the characteristic embryonic stem cell (ESC) colony morphology and were positive for the pluripotency marker alkaline phosphatase (ALP). Such OK-transduced cells generated only a few small non-compact colonies, which were weakly positive for ALP expression. These colonies initially appeared within 21 days after viral transduction and were difficult to expand. Therefore, such assay system offered a clean background for the identification of small molecules having desirable reprogramming inducing activity. Using this system, compounds from a library of around 2000 known small molecules (see Experimental Procedures below) were screened and were identified as hits when they induced the appearance of ESC colonies that were strongly positive for ALP within 14-21 days after treatment. This image-based method provided a more accurate assessment of reprogramming as compared to homogenous reporter-based assay. BIX appeared to have the strongest effect with reproducible induction of more than 1-2 compact ESC-like colonies with high ALP expression. We observed that when MEFs were treated with BIX after OK viral transduction, compact colonies with strong ALP expression could be readily detected within approximately 14-21 days. These cells were also positive for Nanog, Oct4 and SSEA-1 expression. […] However, the reprogramming efficiency in MEFs transduced with OK and treated with BIX was still low, about 2 colonies/3.5×10^4 cells, in comparison to the four factor-induced reprogramming of MEFs or the OK/BIX NPC reprogramming (Shi, Y. et al., Cell Stem Cell, 2:525-528 (2008)). Therefore, we conducted a second screen using a similar protocol, but where BIX was added to the basal media after OK viral transduction. This provided a more permissive platform to identify new small molecules that could further improve reprogramming efficiency. More importantly, this second screen could facilitate discovery of small molecules that impact reprogramming in a more specific manner, for example by acting on signal transduction pathways rather than on histone or DNA modifying enzymes. In this second screen, we again assayed the library of around 2000 known small molecules (see Experimental Procedures), and confirmed two compounds that were able to act in a synergistic manner with BIX to improve reprogramming based on the criteria of the screen. […] Therefore, RG108 was not pursued further for this study. Instead, we focused our phenotypic and functional characterization on another small molecule that was identified in the second screen, BayK, an L-calcium channel agonist. […] Therefore, BayK might play a more specific role in the reprogramming process. When 129 MEFs were transduced with empty retrovirus (negative control); no colonies observed. When 129 MEFs were transduced with OK without small molecules; few small flattened colonies with weak ALP expression present. […] When OK-transduced MEFs were treated with BIX in combination with BayK, a significant increase in the number of ALP^+ colonies that closely resemble the mESC morphology could be observed (˜7 colonies) as compared to OK-transduced MEFs treated with BIX alone (˜2 colonies).
Primary 12952/SvPasCrlf (primary screen) or ROSA26^+/−/OG2^+/− (secondary screen) MEFs were plated onto Matrigel (1:50; BD Biosciences, Bedford, Mass.) coated dishes at a density of 3.5×10^4 cells per well of a 6-well plate. Twenty-four hours later, these cells were transduced overnight with defined retroviruses at 37° C., 5% CO2. […] (all products were from Invitrogen, Carlsbad, Calif., except where mentioned). […]

[2] = system: human primary fibroblasts (CRL2097 or BJ); assay: Reprogramming of human primary fibroblasts transduced with 4TFs; type: cell-based
Procedure: We tested known inhibitors of the TGFβ receptor and MEK on 1×10^4 [Feng, B. et al., Cell Stem Cell 4, 301-12 (2009)] human primary fibroblasts (CRL2097 or BJ) that were retrovirally transduced with the 4TFs (Oct4, Klf4, Sox2 and c-Myc), for their effects on reprogramming kinetics and efficiency. On day 7 (D7) post-infection, the compounds were added, individually or in combinations, and the cultures were examined for iPSCs over the next 1-3 weeks.
The Slc7a1-expressing human fibroblast cells were seeded at 1×10^5 cells/well of a 6 well plate on the day 1. On day 2, 0.25 ml of each retroviral supernatant was added to the cells in the presence of 6 μg/ml polybrene. A second round of transduction was done on day 3. Infection efficiency was estimated by fluorescence microscopy on cells transduced in parallel with GFP or RFP gene-carrying retroviruses. Seven days after initial transduction, fibroblasts were harvested by trypsinization and re-plated at 1×10^4 cells/well of a 6 well plate coated with matrigel (1:50 dilution, cat 354234, BD Biosciences). For compound treatment, the cells were cultured in human reprogramming medium (DMEM/F12, 20% Knockout serum replacer, lx MEM Non-Essential amino acid, lx glutamax, 0.11 mM 2-Mercaptoethanol, 20 ng/ml bFGF and 1,000 U/ml LIF) and were treated with 2 μM SB431542 (Stemgent), 0.5 μM PD0325901 (Stemgent), or combinations of the compounds. The media were changed every 2-3 days depending on the cell density. Seven days after compound treatment, either the plates were fixed and stained for Alkaline phosphatase (ALP) activity, or stained for protein markers, or the cultures were continued with or without indicated splitting by trypsinization till day 30. For split cultures, the cells were split (1:4) and re-plated onto irradiated CF-1 MEF feeder layer (2.5×10^5 cells/well) in each well of 6 well plate and were split (1:10) again on day 21. The cells were maintained in the same media and compound cocktail described above except for the concentrations of PD0325901 (0.5 μM for D14 and 1 μM for D21) and SB431542 (0.5-1 μM after D14). The iPSC colonies were subsequently maintained in conventional hESC media in the absence of the above compounds.
Alkaline phosphatase staining was performed using ALP detection kit (cat no: SCR004, Chemicon) according to the product instructions. For immunocytochemistry, cells were fixed in 4% paraformaldehyde (10 min, RT), washed twice with PBS, blocked using 5% normal donkey serum (Chemicon) and 0.1% TritonX-100 (15 min, RT) and then treated with primary antibodies overnight at 4° C. The primary antibodies used were anti-NANOG (cat no: AB9220, Chemicon, 1:1,000); anti-OCT4 (cat no: sc-5279, Santa Cruz biotech, 1:200), anti-SSEA 4 (cat no: mab4304, Chemicon, 1:500), anti-Tra-1-81 (cat 560123, BD Biosciences, 1:100), anti-Tra-1-81 (mAb 4381, Chemicon, 1:500), anti-βIII TUBULIN (cat no: MMS-435P, Covance Research Products Inc, 1:1000), anti-PDX 1 (1:500) (a kind gift from Dr. C. Wright), anti-BRACHYURY (cat No: AF2085, R & D, final concentration 0.2 μg/ml). The cells were washed twice with PBS and then treated with secondary antibodies for 1 hour at room temperature. The secondary antibodies used were Alexa fluor 488 donkey anti-rabbit or anti-mouse IgG (Invitrogen, 1:1,000) and Alexa fluor 555 donkey anti-rabbit or anti-mouse IgG (Invitrogen, 1:1,000). Nuclei were stained with 0.5 μg/ml DAPI (Sigma). Images were captured using a Nikon Eclipse TE2000-U/X-cite 120 EXFO microscope with a photometric CoolSnap HQ2 camera.
We tested the TGFβ receptor inhibitor (SB431542), MEK inhibitor (PD0325901) and GSK-3 inhibitor (CHIR99021), on human fibroblast crl2097 that were retrovirally transduced with Oct4, Klf4, Sox2 and c-Myc, for their effects on reprogramming kinetics and efficiency. Conditions are the same as set forth in Example 5. Data were collected 8 days after compound treatment.

[3] = system: primary OG2 neural progenitor cells; assay: iPS cell induction from neural progenitor cells after retroviral transduction; type: cell-based, mouse; settings: applied at late stage of reprogramming (after Oct4-GFP activation)
Procedure: The reporter neural progenitor cells were generated using a well established protocol by differentiating the Oct4-GiP mESCs grown in monolayer on gelatin in a chemically defined medium/CDM condition in the absence of serum and other growth factors/cytokines at low cell density for eight days, followed by neurophere formation and subsequent serial passaging in single cells in neural cell expansion media supplemented with 10 ng/ml of bFGF and EGF in monolayer for over six passages/24 days. The resulting neural progenitor cells were homogenous by cell morphology and neural marker expression, and were confirmed to be GFP negative and puromycin sensitive. Such neural progenitor cells plated in monolayer in conventional mESC growth media were transduced with combinations of four, three, or two of the four factors, followed by treating the transduced cells with individual small molecules from a small known drug collection in a typical 6-well format. The compound treatment and culture were continued for additional ten days before puromycin was added. The number of green and puro-resistant colonies was counted at day 14. In comparison to the only four-gene transduced neural cells as the positive control, compound conditions that generated more green colonies than the corresponding gene-only conditions were picked as primary hits. To further confirm these primary hit conditions, we chose to use a late passage of mouse CNS neural progenitor cells (Do, J. T. et al., Stem Cells 25, 1013-1020 (2007)) that were derived from fetal brain of OG2^+/−/ROSA26^+/− transgenic mice (which contain an Oct4-GFP reporter) and expanded in monolayer under the same neural CDM condition as the above with 10 ng/ml of bFGF and EGF. Such cells truly from a non-pluripotent tissue would be devoid of concerns of any contaminating ES cell in the above screening system, which is highly unlikely with all appropriate controls. Similar culture conditions and reprogramming assays were performed using the OG2 neural progenitor cells except that puromycin was not used and green colonies were picked out and characterized by staining of Nanog, SSEA1 and ALP.
mESC-derived or primary OG2 mouse neural progenitor cells were plated into Matrigel (1:50, BD Biosciences) coated 6-well plates at 3.5×10^4 cells/well in the neural progenitor cell expansion media. After one day these cells were transduced with retrovirus for overnight, and the medium was changed into the mESC growth media [DMEM, 5% FBS, 10% KSR, 1× non-essential amino acids (Gibco), 2 mM L-glutamine (Gibco), 0.1 mM β-mercaptoethanol (Gibco) and 10^3 unit/ml LIF (Chemicon)] with or without BIX01294 (0.5-1 μM). GFP-positive iPS cell colonies appeared after 9-14 days, and were picked out and expanded on MEF feeder cells with the mESC growth media.

mouse fibroblasts = assay: Reprogramming of mouse fibroblasts with exogenous poly-Arg transcription factor proteins; type: cell-based; settings: cells incubated with transcription factor proteins plus agent
Procedure: Mouse fibroblasts were grown in mESC medium supplemented with 8 μg/ml of either Oct4/Sox2/Klf4 or Oct4/Sox2/Klf4/Myc (all proteins comprising poly-Arg as described above) for 6-8 hours, washed, and incubated for 2-3 days in mESC media without the above-listed transcription factors. This (4-12 hours with, 1-3 days without) was repeated a number (1, 2, 3, 4, or more) of times and then the cells were cultured in mESC for two weeks.
Mouse fibroblasts were grown in mESC growth medium [Knockout DMEM (Invitrogen) supplemented with 10% ES-FBS+10% KSR, 0.1 mM 2-ME, 1% Glutamax, 1% Non-essential amino acids, 1% EmbryoMax ESC Qualified Nucleosides (Millipore), and 10^3 units/ml LIF (ESGRO, Chemicon International)] supplemented with 8 μg/ml of Oct4/Sox2/Klf4/Myc (all four transcription factors are tagged with poly-Arg […]; SEQ ID NO:2) for 4-12 hours, followed by culturing the cells in the absence of the Oct4/Sox2/Klf4/Myc polypeptides for one day. This procedure was repeated 4 times. The cells were then cultured in mESC medium for another two weeks. iPSC clones were detected by colony morphology and expression of pluripotency markers. An intermediate iPSC clone, which expresses ALP but not Oct4 (Oct4), was dissociated with Trypsin-EDTA. The clone was then expanded by continuous culturing with regular mESC medium or medium supplemented with 0.5 μM PD0325901, 3 μM CHIR99021, 0.5 μM A-83-01. The number of Oct4-positive colonies were counted 2 weeks after small molecule treatment (FIG. 14).

For `CCN(CC)CCCCNc1ncc2cc(-c3cc(OC)cc(OC)c3)c(NC(=O)NC(C)(C)C)nc2n1` [PD173074], the “hit in second synergist screen” value [1] was “primary hits”.
With `O=C(NOC[C@H](O)CO)c1ccc(F)c(F)c1Nc1ccc(I)cc1F` [PD0325901] the “ALP+ colonies with hESC-like morphology (FIG. 7A)” value ([2]; 4TFs transduced fibroblasts, 7 days after compound treatment, SB431542 at 2 μM) was “yielded none”, the “colonies stained positive for SSEA4 and NANOG” value ([2]; day 7 post-treatment (D14)) was “no NANOG^+ colonies were observed” and the “growth of non-iPS cells and iPS cells (selection)” value [3] was “inhibits growth of non-iPS cells while it effectively promotes growth and stable reprogramming of iPS cells”. For the same compound, the “efficiency and speed of development of pluripotent cells” value (mouse fibroblasts) was “improved efficiency and speed of development of pluripotent cells”.
In the case of `O=C(O)C(Cc1c[nH]c2ccccc12)N1C(=O)c2ccccc2C1=O` (stereo not drawn) [RG108], the “reprogramming of OK transduced MEFs (second screen)” value ([1]; in the presence of BIX) is reported as “enhanced reprogramming of OK transduced MEFs in the presence of BIX”.
`Cc1cc(Nc2ncc3c(n2)N(C)C(=O)N(c2cc(NC(=O)c4cccc(C(F)(F)F)c4)ccc2C)C3)n(C)n1` [pluripotin] was tested, and the “hit in second synergist screen” value [1] was “primary hits”.
In the case of `c1nc2nc(Nc3ccc(N4CCOCC4)cc3)nc(NC3CCCCC3)c2[nH]1` [reversine], the “hit in second synergist screen” value [1] is reported as “primary hits”.
For TGFβ, the “effect on 4 factor-mediated reprogramming of fibroblasts” value ([2]; addition of TGFβ) was “had an inhibitory effect on 4 factor-mediated reprogramming of fibroblasts”.

— patent US9771563B2, “Chemical approaches for generation of induced pluripotent stem cells” (The Scripps Research Institute, priority 2008, dated 2017)
